Measurements: paper PMC7862507, “Adrenomedullin for steroid-resistant ulcerative colitis: a randomized, double-blind, placebo-controlled phase-2a clinical trial” (Journal of Gastroenterology, 2020)

How the values were obtained:
[1] = system: patients with steroid-resistant UC; test: Lichtiger index, phase-2a clinical trial; format: in vivo, Japanese patients; settings: mean ± SD
Text: (§1) Patients had to meet all criteria, namely, a Mayo score of 6 or more, a rectal bleeding subscore of at least 1, and Mayo endoscopy subscore (MES) of at least 2, at entry. Main exclusion criteria were as follows: patients with fulminant UC, patients with precancerous lesion in the colon, medication history of biologics within the last 3 months, patients with malignancy or any history of malignancy, and patients with active infection. We excluded patients with a systolic blood pressure under 90 mmHg and a pulse rate under 45 bpm for safety reasons due to the vasodilatory effect of AM. All patients provided written informed consent for all study-related procedures and were requested to be hospitalized for 2 weeks.
(§2) Patients were enrolled after confirmation of steroid-resistance defined as at least daily treatment with 30 mg or more of prednisolone. Screening tests including measurements of vital signs, blood and urine examinations, as well as a 12-lead electrocardiography (ECG), were conducted within 2 weeks prior to administration. Demographic data and disease characteristics including endoscopic disease activity of patients were also collected before randomization. Endoscopic subscores were assessed by on-site investigators and were not subjected to central review. Clinical disease activity was assessed by expert doctors according to the Mayo score and Lichtiger index. Stool samples were collected before administration of the investigational drug and after 2 weeks of treatment initiation. Measurements of fecal calprotectin and […] (FITs) were performed by a commercially available laboratory testing service (BML, Tokyo, Japan) in compliance with GCP. Additionally, measurements of complement components including CH50, C1q, C3, and C4 and evaluation of the absolute number of hematopoietic stem cells in the peripheral blood were performed before and after 2, 4, and 8 weeks by other laboratory testing services (SRL medisearch, Tokyo, Japan and LSI medience, Tokyo, Japan, respectively). The absolute number of hematopoietic stem cells in the peripheral blood was measured as CD34-positive cells using CD45FITC/CD34PE, 7AAD kit (Becton Dickinson Immunocytometry System, USA) and flow cytometry.
(§3) After hospitalization, patients received a continuous infusion of the assigned drug for 8 h per day for a total of 14 days. After the final administration of the investigational drug, patients were subjected to safety examinations and then discharged. But, if necessary due to disease activity, continuous hospitalization was allowed. Patients were requested to make an office visit at 4 and 8 weeks. Evaluations of their Mayo scores including endoscopic examinations were done at 2 and 8 weeks, whereas evaluation of the Lichtiger index was done at 2, 4, and 8 weeks. The dose of concomitant steroid was maintained for 2 weeks after drug administration, and then, a reduction in the steroid dose was allowed depending on the disease condition. Changes to the doses of other drugs, such as aminosalicylic acid, were prohibited throughout the trial.
(§4) All data were collected at each institute from March 2017 to April 2019. The primary endpoint was the change in the Mayo scores at 2 weeks. Secondary endpoints included the change in the Mayo scores at 8 weeks and the rate of clinical remission at 2 and 8 weeks, defined as a Mayo score 0; the response rate of the Mayo scores at 2 and 8 weeks, defined as an improvement of a 3-point or more decrease or at least a 30% decrease from baseline; the changes in MES at 2 and 8 weeks; the changes in the Lichtiger index at 2, 4, and 8 weeks; the changes in fecal calprotectin and FIT at 2 weeks; and finally, the changes in the given dose of steroid.
(§5) The significant level for each test was 5%. […] All data are shown as mean ± standard deviation (SD).

[2] = system: steroid-resistant UC; settings: 9 ng/kg/min of AM; real dose might have been higher (1.4-fold dose of bulk powder used); cited from earlier work
Text: A high rate of the placebo effect has been reported in a previous trial for UC [1–3]. High response rates in the placebo group have occasionally obstructed the successful accomplishment of clinical trials for active UC [19]. In this trial, we were concerned about the major impact from the placebo effect because attending patients received hospitalization and bed rest for 2 weeks. Figure 2 illustrates the changes in clinical indexes and fecal markers of each patient at 2 weeks.

[3] = system: patients with steroid-resistant UC; test: Mayo endoscopy subscore (MES), phase-2a clinical trial; format: in vivo, Japanese patients; settings: mean ± SD
Text: as §1, §2, §3, §4, §5

[4] = system: patients with steroid-resistant UC; test: Mayo score, phase-2a clinical trial; format: in vivo, Japanese patients; settings: mean ± SD
Text: as §1, §2, §3, §4, §5

[5] = Plasma concentration of adrenomedullin (pharmacokinetics); settings: human, intravenous
Procedure: Serum concentrations of AM were assessed at predose, 4 and 8 h, and 2 h after administration (10 h after the start of drug administration) on 1, 8, and 14 days of the administration. […] Measurements and data processing were carried by the Bozo Research Centre (Tsukuba, Japan). The evaluated pharmacokinetic (PK) parameters included the maximum measured plasma concentration (Cmax); the time to maximum measured plasma concentration (Tmax); and the cumulative area under the plasma concentration–time curve (AUC) from time 0 to time 10 h.
The Cmax and Tmax values were obtained directly from the data, while the AUC was calculated using the Phoenix WinNonlin software 6·1 (Pharsight, CA, USA). All data are shown as mean ± standard deviation (SD).

Structure (SMILES): CC[C@H](C)[C@H](NC(=O)[C@H](CCC(N)=O)NC(=O)[C@H](Cc1c[nH]cn1)NC(=O)[C@H](C)NC(=O)[C@H](CC(C)C)NC(=O)[C@H](CCCCN)NC(=O)[C@H](CCC(N)=O)NC(=O)[C@@H](NC(=O)[C@@H](NC(=O)[C@@H]1CSSC[C@H](NC(=O)CNC(=O)[C@H](Cc2ccccc2)NC(=O)[C@H](CO)NC(=O)[C@H](CCCNC(=N)N)NC(=O)[C@H](CC(C)C)NC(=O)CNC(=O)[C@H](CCC(N)=O)NC(=O)[C@H](Cc2ccccc2)NC(=O)[C@H](CC(N)=O)NC(=O)[C@H](CC(N)=O)NC(=O)[C@H](CCSC)NC(=O)[C@H](CO)NC(=O)[C@H](CCC(N)=O)NC(=O)[C@H](CCCNC(=N)N)NC(=O)[C@@H](N)Cc2ccc(O)cc2)C(=O)N[C@@H](CCCNC(=N)N)C(=O)N[C@@H](Cc2ccccc2)C(=O)NCC(=O)N[C@@H]([C@@H](C)O)C(=O)N1)[C@@H](C)O)C(C)C)C(=O)N[C@@H](Cc1ccc(O)cc1)C(=O)N[C@@H](CCC(N)=O)C(=O)N[C@@H](Cc1ccccc1)C(=O)N[C@H](C(=O)N[C@@H](CC(=O)O)C(=O)N[C@@H](CCCCN)C(=O)N[C@@H](CC(=O)O)C(=O)N[C@@H](CCCCN)C(=O)N[C@@H](CC(=O)O)C(=O)N[C@@H](CC(N)=O)C(=O)N[C@H](C(=O)N[C@@H](C)C(=O)N1CCC[C@H]1C(=O)N[C@@H](CCCNC(=N)N)C(=O)N[C@@H](CO)C(=O)N[C@@H](CCCCN)C(=O)N[C@H](C(=O)N[C@@H](CO)C(=O)N1CCC[C@H]1C(=O)N[C@@H](CCC(N)=O)C(=O)NCC(=O)N[C@@H](Cc1ccc(O)cc1)C(N)=O)[C@@H](C)CC)C(C)C)[C@@H](C)O [Adrenomedullin]
- Lichitiger index ([1]; AM 5 ng/kg/min infusion 8 h/day x 14 days, at 2 weeks, n = 4, baseline 10.8 ± 2.9, placebo 7.0 ± 5.8): 5.5 ± 5.6
- Lichitiger index ([1]; AM 5 ng/kg/min infusion 8 h/day x 14 days, at 4 weeks, n = 3, placebo 3.5 ± 3.7): 2.0 ± 1.7
- Lichitiger index ([1]; AM 5 ng/kg/min infusion 8 h/day x 14 days, at 8 weeks, n = 3, placebo 2.3 ± 4.0): 1.3 ± 1.2
- Lichitiger index ([1]; AM 10 ng/kg/min infusion 8 h/day x 14 days, at 2 weeks, n = 5, baseline 12.2 ± 0.4, placebo 7.0 ± 5.8): 7.8 ± 3.8
- Lichitiger index ([1]; AM 10 ng/kg/min infusion 8 h/day x 14 days, at 4 weeks, n = 3, placebo 3.5 ± 3.7): 4.7 ± 4.7
- Lichitiger index ([1]; AM 10 ng/kg/min infusion 8 h/day x 14 days, at 8 weeks, n = 3, placebo 2.3 ± 4.0): 5.7 ± 4.5
- Lichitiger index ([1]; AM 15 ng/kg/min infusion 8 h/day x 14 days, at 2 weeks, n = 6, baseline 12.0 ± 1.7, placebo 7.0 ± 5.8): 6.5 ± 4.4
- Lichitiger index ([1]; AM 15 ng/kg/min infusion 8 h/day x 14 days, at 4 weeks, n = 3, placebo 3.5 ± 3.7): 1.3 ± 1.5
- Lichitiger index ([1]; AM 15 ng/kg/min infusion 8 h/day x 14 days, at 8 weeks, n = 3, placebo 2.3 ± 4.0): 0.3 ± 0.6
- improvement in steroid-resistant UC [2]: significant improvement
- MES (Mayo endoscopic sub-score) ([3]; AM 5 ng/kg/min infusion 8 h/day x 14 days, 2 week, n = 4, baseline 2.3 ± 0.5, placebo 2.0 ± 0.6): 1.5 ± 0.6
- Change of MES ([3]; AM 5 ng/kg/min infusion 8 h/day x 14 days, 2 week, n = 4, placebo -0.5 ± 0.8, P = 0.67 vs. placebo): -0.8 ± 1.0
- MES (Mayo endoscopic sub-score) ([3]; AM 5 ng/kg/min infusion 8 h/day x 14 days, 8 week, n = 3, placebo 2.0 ± 1.4 (n = 2)): 0.7 ± 0.6
- Change of MES ([3]; AM 5 ng/kg/min infusion 8 h/day x 14 days, 8 week, n = 3, placebo -0.5 ± 2.1 (n = 2), P = 0.47 vs. placebo): -1.7 ± 1.2
- MES (Mayo endoscopic sub-score) ([3]; AM 10 ng/kg/min infusion 8 h/day x 14 days, 2 week, n = 5, baseline 2.2 ± 0.4, placebo 2.0 ± 0.6): 2.2 ± 0.8
- Change of MES ([3]; AM 10 ng/kg/min infusion 8 h/day x 14 days, 2 week, n = 5, placebo -0.5 ± 0.8, P = 0.32 vs. placebo): 0.0 ± 0.7
- MES (Mayo endoscopic sub-score) ([3]; AM 10 ng/kg/min infusion 8 h/day x 14 days, 8 week, n = 3, placebo 2.0 ± 1.4 (n = 2)): 2.0 ± 0.0
- Change of MES ([3]; AM 10 ng/kg/min infusion 8 h/day x 14 days, 8 week, n = 3, placebo -0.5 ± 2.1 (n = 2), P = 0.69 vs. placebo): 0.0 ± 0.0
- MES (Mayo endoscopic sub-score) ([3]; AM 15 ng/kg/min infusion 8 h/day x 14 days, 2 week, n = 6, baseline 2.5 ± 0.5, placebo 2.0 ± 0.6): 2.3 ± 1.0
- Change of MES ([3]; AM 15 ng/kg/min infusion 8 h/day x 14 days, 2 week, n = 6, placebo -0.5 ± 0.8, P = 0.49 vs. placebo): -0.2 ± 0.8
- MES (Mayo endoscopic sub-score) ([3]; AM 15 ng/kg/min infusion 8 h/day x 14 days, 8 week, n = 3, placebo 2.0 ± 1.4 (n = 2)): 0.0 ± 0.0
- Change of MES ([3]; AM 15 ng/kg/min infusion 8 h/day x 14 days, 8 week, n = 3, placebo -0.5 ± 2.1 (n = 2), P = 0.27 vs. placebo): -2.0 ± 0.0
- Mayo score ([4]; AM 5 ng/kg/min infusion 8 h/day x 14 days, at 2 weeks, n = 4, baseline 9.5 ± 1.0, placebo 6.8 ± 3.6): 5.0 ± 3.2
- Mayo score ([4]; AM 5 ng/kg/min infusion 8 h/day x 14 days, at 8 weeks, n = 3, placebo 4.5 ± 3.5 (n = 2)): 2.0 ± 1.7
- Mayo score ([4]; AM 10 ng/kg/min infusion 8 h/day x 14 days, at 2 weeks, n = 5, baseline 8.8 ± 1.1, placebo 6.8 ± 3.6): 7.2 ± 2.7
- Mayo score ([4]; AM 10 ng/kg/min infusion 8 h/day x 14 days, at 8 weeks, n = 3, placebo 4.5 ± 3.5 (n = 2)): 5.7 ± 2.5
- Mayo score ([4]; AM 15 ng/kg/min infusion 8 h/day x 14 days, at 2 weeks, n = 6, baseline 9.8 ± 1.6, placebo 6.8 ± 3.6): 7.0 ± 4.1
- Mayo score ([4]; AM 15 ng/kg/min infusion 8 h/day x 14 days, at 8 weeks, n = 3, placebo 4.5 ± 3.5 (n = 2)): 0.0 ± 0.0
- AUC(0-t) ([5]; 5 ng/kg/min): 0.152 ± 0.034 ng·h/mL
- AUC(0-t) ([5]; 10 ng/kg/min): 0.281 ± 0.039 ng·h/mL
- AUC(0-t) ([5]; 15 ng/kg/min): 0.44 ± 0.191 ng·h/mL
